Assays:
PTPN1 (i.e., PTP1B) = biological target: T1, PTPN1 (i.e., PTP1B) (Homo sapiens, UniProt P18031); assay: Phosphatase activity assay (DiFMUP substrate), PTP1B; type: biochemical; details: compounds binned ≤1 uM or >1 uM
T1 sequence (P18031 1-435): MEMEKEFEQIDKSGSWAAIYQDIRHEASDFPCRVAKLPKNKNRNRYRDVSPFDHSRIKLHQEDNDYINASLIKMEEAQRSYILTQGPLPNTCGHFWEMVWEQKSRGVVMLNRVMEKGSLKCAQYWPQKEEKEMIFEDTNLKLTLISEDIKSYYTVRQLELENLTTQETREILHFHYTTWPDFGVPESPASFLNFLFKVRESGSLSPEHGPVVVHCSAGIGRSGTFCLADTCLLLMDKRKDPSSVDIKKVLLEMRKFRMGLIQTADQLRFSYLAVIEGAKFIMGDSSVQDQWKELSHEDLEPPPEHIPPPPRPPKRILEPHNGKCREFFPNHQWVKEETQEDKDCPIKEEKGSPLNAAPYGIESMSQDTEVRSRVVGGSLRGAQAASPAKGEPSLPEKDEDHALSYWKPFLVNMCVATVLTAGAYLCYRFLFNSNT
Method: (§1) The selectivity and potency of a small molecule PTPN2 inhibitor as provided herein against one or more protein tyrosine phosphatase (PTP) enzymes, and specifically against PTPN2, is assessed in various ways. The one or more PTP enzymes comprise Mycobacterium protein tyrosine phosphatase A (mPTPA), Mycobacterium protein tyrosine phosphatase B (mPTPB), PTPN1 (i.e., PTP1B), PTPN2 (i.e., TC-PTP), PTPN22 (i.e., LYP), SHP-1, SHP-2, FAP-1, Meg2, HePTP, Laforin, VHX, VHR, LMWPTP, Cdc14A, LAR, CD45, PTPRG, a fragment thereof, a variant thereof, and a combination thereof. Selectivity and potency of a small molecule PTPN2 inhibitor is evaluated using a PTP activity inhibition assay. The assay is performed using a buffer comprising 50 mM HEPES buffer pH 7.5, 150 mM NaCl, 0.5 mM EDTA, 1 mM DTT, 0.001% Tween-20.
(§2) The assay is performed using a phosphated substrate, e.g., 10 mM 6,8-Difluoro-4-Methylumbelliferyl Phosphate (DIFMUP) that is stored at −20° C. Alternatively or in addition to, the assay is performed using other phosphated substrate (e.g., fluorescein diphosphate). Each PTP enzyme is diluted in the assay buffer
(§3) The assay can be carried out at room temperature in multiplate format, e.g., using 384 well plates. A small molecule PTPN2 inhibitor dissolved in DMSO at one of 10 concentrations from a serial dilution or DMSO alone for control is added to each well. A mixture of the assay buffer comprising PTP enzyme (e.g., 0.025 ng/ul PTPN2) is added to each well and mixed for approximately 2 minutes. The reaction is initiated by adding DiFMUP diluted in the assay buffer to a final concentration of approximately 45 μM DiFMUP in PTPN2 assay. For each PTP enzyme, DiFMUP is added at the Km (Michaelis constant) of the enzyme that had been independently determined. The phosphatase activity of the PTP enzyme is assessed by monitoring appearance of a fluorescent product (6,8-difluoro-7-hydroxyl-4-coumarin (DiFMU) from DiFMUP) continuously for about 15 to 30 minutes, using the INFINITE M1000Pro plate reader (Tecan) with excitation at 360 nm and emission at 450 nm (cutoff filter at 435 nm) for DiFMU. Each assay is performed at least in duplicate. The rate (e.g., the initial rate) of DiFMU formation is plotted against the concentration of the small molecule PTPN2 inhibitor, and the data is fitted (e.g., using a 4-parameter equation) to determine the inflection point of the fit as the IC50 of the small molecule PTPN2 inhibitor for a specific enzyme. Utilizing this assay, the ability of the compounds in Table 2 to inhibit PTPN2 and PTP1B has been assessed. Table 3 summarizes the IC50 values.

PTPN2 (i.e., TC-PTP) = biological target: T2, PTPN2 (i.e., TC-PTP) (Homo sapiens, UniProt P17706); assay: Phosphatase activity assay (DiFMUP substrate), PTPN2; type: biochemical; details: compounds binned ≤1 uM or >1 uM
T2 sequence (P17706 1-415): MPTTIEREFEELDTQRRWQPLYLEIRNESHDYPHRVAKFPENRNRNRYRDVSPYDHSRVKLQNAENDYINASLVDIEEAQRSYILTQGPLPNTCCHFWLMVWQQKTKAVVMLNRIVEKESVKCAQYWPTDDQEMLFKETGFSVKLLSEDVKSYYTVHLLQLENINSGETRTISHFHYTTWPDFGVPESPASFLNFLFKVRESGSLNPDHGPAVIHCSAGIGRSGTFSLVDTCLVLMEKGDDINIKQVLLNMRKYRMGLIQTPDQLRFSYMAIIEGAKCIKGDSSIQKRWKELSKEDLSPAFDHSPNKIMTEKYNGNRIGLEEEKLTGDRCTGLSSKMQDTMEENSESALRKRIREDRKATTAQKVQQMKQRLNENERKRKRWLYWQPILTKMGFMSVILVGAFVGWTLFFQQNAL
Method: as §1, §2, §3

Compound | IC50 (PTPN1 (i.e., PTP1B)) [nM] | IC50 (PTPN2 (i.e., TC-PTP)) [nM]
Cc1ncc(-c2ccc(O)c(N3CC(=O)NS3(=O)=O)c2F)o1 [Compound 101, 5-(2-fluoro-6-hydroxy-3-(2-methyloxazol-5-yl)phenyl)-1,2,5-thiadiazolidin-3-one 1,1-dioxide] | ≤ 1000 | ≤ 1000
O=C1CN(c2c(O)ccc(-c3cnn(-c4cccnc4)c3)c2F)S(=O)(=O)N1 [Compound 102, 5-(2-fluoro-6-hydroxy-3-(1-(pyridin-3-yl)-1H-pyrazol-4-yl)phenyl)-1,2,5-thiadiazolidin-3-one 1,1-dioxide] | ≤ 1000 | ≤ 1000
Cc1csc(-c2ccc(O)c(N3CC(=O)NS3(=O)=O)c2F)c1 [Compound 103, 5-(2-fluoro-6-hydroxy-3-(4-methylthiophen-2-yl)phenyl)-1,2,5-thiadiazolidin-3-one 1,1-dioxide] | ≤ 1000 | ≤ 1000
CC(C)CCNC1CCCN(c2cc(O)c(N3CC(=O)NS3(=O)=O)c(F)c2)C1 (stereo not drawn) [Compound 104, 5-(2-fluoro-6-hydroxy-4-(3-(isopentylamino)piperidin-1-yl)phenyl)-1,2,5-thiadiazolidin-3-one 1,1-dioxide] | ≤ 1000 | ≤ 1000
COc1ccc(-c2cnc(O)nc2)c(F)c1N1CC(=O)NS1(=O)=O [Compound 105, 5-(2-fluoro-3-(2-hydroxypyrimidin-5-yl)-6-methoxyphenyl)-1,2,5-thiadiazolidin-3-one 1,1-dioxide] | > 1000 | > 1000
Cn1cc(-c2ccc(O)c(N3CC(=O)NS3(=O)=O)c2F)ccc1=O [Compound 106, 5-(2-fluoro-6-hydroxy-3-(1-methyl-6-oxo-1,6-dihydropyridin-3-yl)phenyl)-1,2,5-thiadiazolidin-3-one 1,1-dioxide] | ≤ 1000 | ≤ 1000
COc1cc(-c2ccc(O)c(N3CC(=O)NS3(=O)=O)c2F)ccn1 [Compound 107, 5-(2-fluoro-6-hydroxy-3-(2-methoxypyridin-4-yl)phenyl)-1,2,5-thiadiazolidin-3-one 1,1-dioxide] | ≤ 1000 | ≤ 1000
CC(C)n1cc(-c2ccc(O)c(N3CC(=O)NS3(=O)=O)c2F)cn1 [Compound 108, 5-(2-fluoro-6-hydroxy-3-(1-isopropyl-1H-pyrazol-4-yl)phenyl)-1,2,5-thiadiazolidin-3-one 1,1-dioxide] | ≤ 1000 | ≤ 1000
CN1CCc2cc(-c3ccc(O)c(N4CC(=O)NS4(=O)=O)c3F)ccc2C1 [Compound 109, 5-(2-fluoro-6-hydroxy-3-(2-methyl-1,2,3,4-tetrahydroisoquinolin-6-yl)phenyl)-1,2,5-thiadiazolidin-3-one 1,1-dioxide] | ≤ 1000 | ≤ 1000
Cn1cc(-c2ccc(O)c(N3CC(=O)NS3(=O)=O)c2F)c(F)n1 [Compound 110, 5-(2-fluoro-3-(3-fluoro-1-methyl-1H-pyrazol-4-yl)-6-hydroxyphenyl)-1,2,5-thiadiazolidin-3-one 1,1-dioxide] | ≤ 1000 | ≤ 1000
O=C1CN(c2c(O)ccc(-c3cnn(Cc4cncc(F)c4)c3)c2F)S(=O)(=O)N1 [Compound 111, 5-(2-fluoro-3-(1-((5-fluoropyridin-3-yl)methyl)-1H-pyrazol-4-yl)-6-hydroxyphenyl)-1,2,5-thiadiazolidin-3-one 1,1-dioxide] | ≤ 1000 | ≤ 1000
Cn1ncc2cc(-c3ccc(O)c(N4CC(=O)NS4(=O)=O)c3F)ccc21 [Compound 112, 5-(2-fluoro-6-hydroxy-3-(1-methyl-1H-indazol-5-yl)phenyl)-1,2,5-thiadiazolidin-3-one 1,1-dioxide] | ≤ 1000 | ≤ 1000

The remaining lines, values ahead:

IC50 (PTPN1 (i.e., PTP1B)) [nM] | IC50 (PTPN2 (i.e., TC-PTP)) [nM] | Compound
≤ 1000 | ≤ 1000 | O=C1CN(c2c(O)ccc(-c3cnn(Cc4cc(F)cc(F)c4)c3)c2F)S(=O)(=O)N1 [Compound 113, 5-(3-(1-(3,5-difluorobenzyl)-1H-pyrazol-4-yl)-2-fluoro-6-hydroxyphenyl)-1,2,5-thiadiazolidin-3-one 1,1-dioxide]
≤ 1000 | ≤ 1000 | O=C1CN(c2c(O)ccc(-c3ccc4[nH]ncc4c3)c2F)S(=O)(=O)N1 [Compound 114, 5-(2-fluoro-6-hydroxy-3-(1H-indazol-5-yl)phenyl)-1,2,5-thiadiazolidin-3-one 1,1-dioxide]
≤ 1000 | ≤ 1000 | Cn1cnc(-c2ccc(O)c(N3CC(=O)NS3(=O)=O)c2F)c1 [Compound 115]
> 1000 | > 1000 | Cn1ccc(-c2ccc(F)c(N3CC(=O)NS3(=O)=O)c2F)c1 [Compound 116, 5-(2,6-difluoro-3-(1-methyl-1H-pyrrol-3-yl)phenyl)-1,2,5-thiadiazolidin-3-one 1,1-dioxide]
≤ 1000 | ≤ 1000 | O=C1CN(c2c(O)ccc(-c3ccc(N4CCCC4)cc3)c2F)S(=O)(=O)N1 [Compound 117, 5-(2-fluoro-4-hydroxy-4′-(pyrrolidin-1-yl)-[1,1′-biphenyl]-3-yl)-1,2,5-thiadiazolidin-3-one 1,1-dioxide]
≤ 1000 | ≤ 1000 | COc1ncc(-c2ccc(O)c(N3CC(=O)NS3(=O)=O)c2F)cn1 [Compound 118, 5-(2-fluoro-6-hydroxy-3-(2-methoxypyrimidin-5-yl)phenyl)-1,2,5-thiadiazolidin-3-one 1,1-dioxide]
≤ 1000 | ≤ 1000 | Cc1c(-c2cnn(CCC(C)C)c2)ccc(O)c1N1CC(=O)NS1(=O)=O [Compound 119, 5-(6-hydroxy-3-(1-isopentyl-1H-pyrazol-4-yl)-2-methylphenyl)-1,2,5-thiadiazolidin-3-one 1,1-dioxide]
≤ 1000 | ≤ 1000 | O=C1CN(c2c(O)ccc(-c3ccc(-c4ccccc4)nc3)c2F)S(=O)(=O)N1 [Compound 120, 5-(2-fluoro-6-hydroxy-3-(6-phenylpyridin-3-yl)phenyl)-1,2,5-thiadiazolidin-3-one 1,1-dioxide]
> 1000 | > 1000 | O=C1CN(c2c(O)ccc(-c3nnc(-c4ccccc4)o3)c2F)S(=O)(=O)N1 [Compound 121, 5-(2-fluoro-6-hydroxy-3-(5-phenyl-1,3,4-oxadiazol-2-yl)phenyl)-1,2,5-thiadiazolidin-3-one 1,1-dioxide]
≤ 1000 | ≤ 1000 | O=C1CN(c2c(O)ccc(-c3cccc(N4CCCC4)c3)c2F)S(=O)(=O)N1 [Compound 122, 5-(2-fluoro-4-hydroxy-3′-(pyrrolidin-1-yl)-[1,1′-biphenyl]-3-yl)-1,2,5-thiadiazolidin-3-one 1,1-dioxide]
 | > 1000 | CC(C1CCCCC1)n1cnc(-c2ccc(O)c(N3CC(=O)NS3(=O)=O)c2F)c1 (stereo not drawn) [Compound 413, 5-(3-(1-(1-cyclohexylethyl)-1H-imidazol-4-yl)-2-fluoro-6-hydroxyphenyl)-1,2,5-thiadiazolidin-3-one 1,1-dioxide]
